Reference: patent EP4685142A1, “TRIAZINE COMPOUND AND USE THEREOF” (Chengdu Zenitar Biomedical Technology Co., Ltd., priority 2023, dated 2024)
Where two headings read alike, the source gives them in different places.

Tests used:
LPS-induced mice = assay: LPS-induced mouse model, survival; format: in vivo, Balb/c mice; settings: for 72h Survival rate: 25 mg/kg oral, 1 h before 10 mg/kg LPS i.p.; for survival status of mice (mice alive) 12h / survival status of mice (mice alive) 24h / survival status of mice (mice alive) 36h / survival status of mice (mice alive) 48h / survival status of mice (mice alive) 72h: 25 mg/kg
[1] = biological target: T1, hERG potassium ion channel (Homo sapiens, UniProt Q12809)
Method: (§1) Inhibition experiment of compounds on hERG potassium ion channel
(§2) Cell culture and treatment: CHO cells stably expressing hERG were cultured in cell culture flasks and incubated in a 5% CO2 incubator at 37°C. When a cell density reached 60%-80%, the cell culture medium was aspirated, washed once with PBS, and then digested with Detachin. After digestion, the grown cells were neutralized in the cell culture medium, and then centrifuged, the supernatant was aspirated, the cell culture medium was added again to resuspend the grown cells, and the cell density was adjusted to 2-5×10^6 cells/mL for later use.
(§3) Compound preparation: the compound stock solution was diluted in 100% DMSO, that is, 10 µL compound stock solution was serially diluted in 20 µL DMSO by 3 folds to obtain six concentrations. Six concentrations of the compound (4 µL for each concentration) were diluted in 396 µL extracellular fluid by 100 folds to obtain six intermediate concentrations. Six intermediate concentrations of the compound (80 µL for each concentration) were diluted in 320 µL extracellular fluid by 5 folds to obtain final concentrations to be tested. […] DMSO in a final test concentration was not more than 0.2%, and DMSO at this concentration had no effect on the hERG potassium channel. The entire dilution process for compound preparation was performed using Bravo instrument.
(§4) Electrophysiological recording process: the processes of single-celled high-impedance sealing and whole-cell mode formation were all automatically completed by Qpatch instrument, under the whole-cell recording mode, the cells were clamped at -80 mV, before 5-second + 40 mV depolarization stimulus, the cells were given 50-millisecond - 50 mV pre-voltage, followed by repolarization to -50 mV for 5 seconds, and then returning to -80 mV. The voltage stimulus was given every 15 seconds, after 2 minutes of recording, extracellular fluid was recorded for 5 min, and then a drug was administrated, started from a lowest test concentration, each test concentration of the compound was given for 2.5 minutes, after all concentrations were given consecutively, a positive control compound Cisapride (3 µM) was given. At least 3 cells were tested for each concentration (n≥3).
(§5) Data processing: data analysis and processing were performed using GraphPad Prism 5.0 and Excel software. IC50 values of the compounds were calculated by fitting with the following equation using GraphPad Prism 5 software: Y = Bottom + (Top−Bottom)/(1+10^(∧)((LogIC50−X)*HillSlope)); [formula] where X is the Log value of the test sample concentration, Y is an inhibition percentage at a corresponding concentration, and Bottom and Top are the minimum and maximum inhibition percentages, respectively.

[2] = Pharmacokinetic evaluation in Balb/c mice; format: in vivo; settings: mouse, in vivo, 5 mg/kg
Excerpt: 4. Pharmacokinetic evaluation of compounds in Balb/c mice
Experimental purpose: to understand pharmacokinetic properties of the compounds.
Experimental basis: Technical Guidelines for Nonclinical Pharmacokinetic Studies of Chemical Drugs, 2014.
Experimental protocol: the pharmacokinetic properties of the compounds were investigated via intravenous administration and intragastric administration in Balb/c mice.
The blood drug concentration was quantitatively analyzed by LC-MS/MS, and pharmacokinetic parameters were calculated, such as peak concentration (Cmax), area under the concentration-time curve (AUC(0-t)), half-life (T1/2), clearance (CL), volume of distribution at steady state (Vdss), and bioavailability (F).
The results of pharmacokinetic evaluation are shown in Table 5 below: Table 5 Pharmacokinetic test results of compounds in Balb/c mice

[3] = biological target: T1, hERG potassium ion channel; assay: Inhibition of hERG potassium ion channel (CHO cells stably expressing hERG, Qpatch)
Method: as §1, §2, §3, §4, §5

NLRP3 inflammasome = biological target: T2, NLRP3 inflammasome (Homo sapiens, UniProt Q96P20); assay: Inhibitory activity of NLRP3 inflammasome in human monocytes (THP-1 cells, LPS + Nigericin, IL-1β ELISA); format: cell-based
T2 construct: host or cells: THP-1 cells
Method: 1. Determination of inhibitory activity of NLRP3 inflammasome in human monocytes
Experimental method: THP-1 cells were cultured in RPMI culture medium containing PMA (10 µM), and then inoculated in 48-well plates at a density of 2×10^5 cells/mL, the plates were incubated overnight in a 5% CO2 incubator at 37°C. The next day, the above culture medium was replaced with Opti-MEM culture medium containing 1 µg/mL LPS. After 3 hours, the grown cells were simulated for 40 min with a drug, and then simulated for 40 min with Nigericin (10 µM), and a cell supernatant was harvested for ELISA analysis.
Table 2 Inhibitory activity of NLRP3 inflammasome

[4] = In vivo brain-to-plasma ratio in mice; settings: for Plasma / Brain: male mice, oral 10 mg/kg; for Kp at 1 h / Kp at 6 h: mouse, brain, po, 10 mg/kg
Method: Evaluation of in vivo brain-to-plasma ratio of compound
Experimental purpose: to obtain the brain-to-plasma ratio of the compound
Experimental protocol: the brain-to-plasma ratio of the compound was investigated by monitoring the content of the compound in mouse brain and plasma.
Experimental procedure: the compound was weighed, followed by adding a small amount of DMSO and adding a sodium chloride solution for injection, to prepare a 10 mg · mL^-1 compound solution for administration. Male mice were orally administered at 10 mg · kg^-1, and whole plasma and whole brain tissue were sampled at 1 h and 6 h after administration (n=3). […] A centrifuge tube was weighed as M1, the centrifuge tube containing the whole brain tissue was weighed as M2, the centrifuge tube containing water for homogenization was weighed as M3, and the centrifuge tube after the removal of 30 µL homogenate was weighed as M4.
Standard curve range: 10-10,000 ng·mL^-1. Content of drug in brain = measured value × 0.03 × (M3−M1)/[(M2−M1)×(M3−M4)].

[5] = In vivo distribution of cerebrospinal fluid and plasma; settings: for Cerebrospinal fluid / Plasma: intravenous 5 mg/kg, n=1; for concentration at 0.25 h / concentration at 2 h: male, iv, 5 mg/kg
Method: Evaluation of in vivo distribution of cerebrospinal fluid and plasma after compound administration
Experimental procedure: the compound was weighed, followed by adding a small amount of DMSO and then adding a sodium chloride solution for injection, to prepare a 5 mg·mL^-1 compound solution for administration. […] Standard curve range: 1-1000 ng·mL^-1.

[6] = system: IL-1β in human PBMC cells; assay: Inhibitory activity on IL-1β in human PBMC cells (LPS + Nigericin, ELISA); format: cell-based; settings: human PBMC, LPS 1 µg/mL 3 h, drug 40 min, Nigericin 10 µM 40 min, IL-1β ELISA; read-out: IC50
Method: 2. Determination of inhibitory activity of compounds on IL-1β in human PBMC cells
Human peripheral blood mononuclear cells (PBMCs) were taken and cultured overnight in RPMI 1640 culture medium containing 10% FBS and antibiotics before stimulation. On the second day, the culture medium was replaced with a serum-reduced culture medium, the grown cells were stimulated for 3 h with LPS at a working concentration of 1 µg/mL, stimulated for 40 min with a drug, and then stimulated for 40 min with Nigericin at a concentration of 10 µM, the cell supernatant was harvested, and the yield of IL-1β was detected by ELISA.
The experimental results are shown in Table 3: Table 3 Inhibitory effect of compounds on IL-1β in PBMC cells

[7] = PO, Balb/c mice, read-out: AUC(0-t)
[8] = PO, Balb/c mice, read-out: Cmax
[9] = PO, Balb/c mice, read-out: T1/2 (converted)

T1 sequence (Q12809 whole entry): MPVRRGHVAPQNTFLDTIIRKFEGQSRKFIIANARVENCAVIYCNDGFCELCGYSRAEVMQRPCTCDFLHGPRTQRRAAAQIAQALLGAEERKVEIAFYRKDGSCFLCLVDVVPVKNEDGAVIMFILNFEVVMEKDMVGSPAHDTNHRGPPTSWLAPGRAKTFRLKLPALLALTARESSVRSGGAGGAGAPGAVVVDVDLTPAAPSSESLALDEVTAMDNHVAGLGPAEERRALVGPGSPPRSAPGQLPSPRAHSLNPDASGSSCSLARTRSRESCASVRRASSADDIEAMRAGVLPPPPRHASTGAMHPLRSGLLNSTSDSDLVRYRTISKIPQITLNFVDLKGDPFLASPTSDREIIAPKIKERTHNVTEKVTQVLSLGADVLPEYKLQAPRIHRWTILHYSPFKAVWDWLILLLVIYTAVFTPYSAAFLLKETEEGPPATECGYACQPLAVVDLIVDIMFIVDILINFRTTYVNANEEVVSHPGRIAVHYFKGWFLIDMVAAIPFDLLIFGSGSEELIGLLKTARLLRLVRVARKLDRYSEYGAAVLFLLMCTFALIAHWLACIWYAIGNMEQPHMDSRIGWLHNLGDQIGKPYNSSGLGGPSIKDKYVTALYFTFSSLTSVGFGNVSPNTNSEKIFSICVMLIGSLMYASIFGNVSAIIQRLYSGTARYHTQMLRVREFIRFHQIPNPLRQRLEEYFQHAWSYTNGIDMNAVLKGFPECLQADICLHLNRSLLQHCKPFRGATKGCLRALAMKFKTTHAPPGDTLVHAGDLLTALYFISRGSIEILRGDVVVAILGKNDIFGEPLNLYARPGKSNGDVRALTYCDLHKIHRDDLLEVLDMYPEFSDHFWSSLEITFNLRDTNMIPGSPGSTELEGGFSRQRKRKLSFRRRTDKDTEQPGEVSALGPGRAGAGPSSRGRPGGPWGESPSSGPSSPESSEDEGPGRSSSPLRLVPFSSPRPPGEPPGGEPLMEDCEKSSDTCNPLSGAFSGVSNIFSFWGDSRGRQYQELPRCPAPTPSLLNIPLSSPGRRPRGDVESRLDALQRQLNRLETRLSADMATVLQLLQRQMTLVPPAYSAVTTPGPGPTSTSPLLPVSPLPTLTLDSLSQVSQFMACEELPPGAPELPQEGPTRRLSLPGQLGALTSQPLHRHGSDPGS
T2 sequence (Q96P20 whole entry): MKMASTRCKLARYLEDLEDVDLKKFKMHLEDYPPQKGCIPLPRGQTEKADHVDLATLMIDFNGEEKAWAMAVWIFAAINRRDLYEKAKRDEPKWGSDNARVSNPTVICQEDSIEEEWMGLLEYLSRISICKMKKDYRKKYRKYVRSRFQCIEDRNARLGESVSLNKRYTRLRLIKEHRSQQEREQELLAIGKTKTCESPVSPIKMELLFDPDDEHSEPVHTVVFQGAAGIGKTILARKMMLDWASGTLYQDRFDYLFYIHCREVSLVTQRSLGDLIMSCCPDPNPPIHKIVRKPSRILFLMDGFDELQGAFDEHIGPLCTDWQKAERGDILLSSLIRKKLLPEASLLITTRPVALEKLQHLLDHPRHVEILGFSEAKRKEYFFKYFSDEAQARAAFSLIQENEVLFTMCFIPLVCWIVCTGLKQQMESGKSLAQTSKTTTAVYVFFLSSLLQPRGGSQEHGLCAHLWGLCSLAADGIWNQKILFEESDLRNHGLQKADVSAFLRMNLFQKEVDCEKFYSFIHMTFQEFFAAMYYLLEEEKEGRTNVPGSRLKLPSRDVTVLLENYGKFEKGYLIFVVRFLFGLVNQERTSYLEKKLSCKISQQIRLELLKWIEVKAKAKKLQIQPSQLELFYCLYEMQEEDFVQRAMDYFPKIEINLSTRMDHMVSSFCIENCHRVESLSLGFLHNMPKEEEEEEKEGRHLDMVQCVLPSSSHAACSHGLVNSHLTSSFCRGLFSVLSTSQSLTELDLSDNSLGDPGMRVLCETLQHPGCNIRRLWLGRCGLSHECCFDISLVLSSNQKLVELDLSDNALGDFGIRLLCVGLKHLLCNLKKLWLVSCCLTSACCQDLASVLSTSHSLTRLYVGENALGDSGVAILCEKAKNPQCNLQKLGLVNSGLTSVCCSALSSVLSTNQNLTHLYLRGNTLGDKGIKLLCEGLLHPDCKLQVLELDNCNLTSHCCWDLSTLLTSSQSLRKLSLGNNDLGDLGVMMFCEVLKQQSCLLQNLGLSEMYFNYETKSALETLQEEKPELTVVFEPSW

Row | SMILES | 72h Survival rate (LPS-induced mice) | survival status of mice (mice alive) 12h (LPS-induced mice; First cage (5 mice)) | survival status of mice (mice alive) 24h (LPS-induced mice; First cage (5 mice)) | survival status of mice (mice alive) 36h (LPS-induced mice; First cage (5 mice)) | survival status of mice (mice alive) 48h (LPS-induced mice; First cage (5 mice)) | survival status of mice (mice alive) 72h (LPS-induced mice; First cage (5 mice)) | survival status of mice (mice alive) 12h (LPS-induced mice; Second cage (5 mice)) | survival status of mice (mice alive) 24h (LPS-induced mice; Second cage (5 mice)) | survival status of mice (mice alive) 36h (LPS-induced mice; Second cage (5 mice)) | survival status of mice (mice alive) 48h (LPS-induced mice; Second cage (5 mice)) | survival status of mice (mice alive) 72h (LPS-induced mice; Second cage (5 mice)) | inhibitory effects on the hERG potassium ion channel (conclusion in words) [1] | AUC(0-t) [2, 7] | Cmax [2, 8] | half-life [2, 9] | 20 uM Inhibition ratio [3] | IC50 (NLRP3 inflammasome) | Cerebrospinal fluid ([5]; 0.25h) | Plasma ([5]; 0.25h) | Cerebrospinal fluid ([5]; 2h) | further results
1 | Cn1c(-c2ccc3sccc3c2O)nnc(N[C@@H]2CCCN(CCO)C2)c1=O [Compound 9, (R)-3-(4-hydroxybenzo[b]thiophen-5-yl)-6-((1-(2-hydroxyethyl)piperidin-3-yl)amino)-4-methyl-1,2,4-triazin-5(4H)-ketone] | 70% | 5 | 5 | 5 | 5 | 3 | 5 | 5 | 5 | 5 | 4 | Conclusion: compounds 3, 4, 5, 9, 16, 17, 24, 30, 40, 41, 42, 43, 54 and others have weak inhibitory effects on the hERG potassium ion channel, having weaker inhibitory effect than the reference compound Ref-1. | 4400 ng·h/mL | 2280 ng/mL | 0.85 h | 8.83% | 3.95 nM |  |  |  | Plasma ([4]; 1 h): 1830 ng/mL; Plasma ([4]; 6 h): 46 ng/mL; Kp at 1 h [4]: 0.04; Kp at 6 h [4]: 0.46
2 | CCn1c(-c2ccc3sccc3c2O)nnc(N[C@@H]2CCCN(C)C2)c1=O [Compound 17, (R)-4-ethyl-3-(4-hydroxybenzo[b]thiophen-5-yl)-6-[(1-methylpiperidin-3-yl)amino]-1,2,4-tria zin-5(4H)-ketone] |  |  |  |  |  |  |  |  |  |  |  | Conclusion: compounds 3, 4, 5, 9, 16, 17, 24, 30, 40, 41, 42, 43, 54 and others have weak inhibitory effects on the hERG potassium ion channel, having weaker inhibitory effect than the reference compound Ref-1. | 17800 ng·h/mL | 1850 ng/mL | 4.2 h | 22.83% | 3.19 nM | 47 ng/g | 713 ng/mL | 25 ng/g | Plasma ([5]; 2h): 590 ng/mL; Brain ([4]; 1 h): 745 ng/g; Plasma ([4]; 1 h): 5243 ng/mL; Brain ([4]; 6 h): 290 ng/g; Plasma ([4]; 6 h): 1872 ng/mL; Kp at 1 h [4]: 0.14; Kp at 6 h [4]: 0.16
3 | CCN1C[C@H](F)C[C@@H](Nc2nnc(-c3ccc4sccc4c3O)n(C)c2=O)C1 [Compound 41, 6-(((3R,5R)-1-ethyl-5-fluoropiperidin-3-yl)amino)-3-(4-hydroxybenzo[b]thiophen-5-yl)-4-me thyl-1,2,4-triazin-5(4H)-ketone] | 100% | 5 | 5 | 5 | 5 | 5 | 5 | 5 | 5 | 5 | 5 | Conclusion: compounds 3, 4, 5, 9, 16, 17, 24, 30, 40, 41, 42, 43, 54 and others have weak inhibitory effects on the hERG potassium ion channel, having weaker inhibitory effect than the reference compound Ref-1. |  |  |  | 13.31% | 2.02 nM | 67 ng/g | 668 ng/mL | 1 ng/g | Plasma ([5]; 2h): 38 ng/mL
4 | CCN1C[C@H](F)C[C@@H](Nc2nnc(-c3ccc4sccc4c3O)n(CC)c2=O)C1 [Compound 42, 4-ethyl-6-(((3R,5R)-1-ethyl-5-fluoropiperidin-3-yl)amino)-3-(4-hydroxybenzo[b]thiophen-5-y 1)-1,2,4-triazin-5(4H)-ketone] |  |  |  |  |  |  |  |  |  |  |  |  |  |  |  | 14.98% |  |  |  |  | concentration at 0.25 h ([5]; mouse, cerebrospinal fluid): 35 ng/g; concentration at 2 h ([5]; mouse, cerebrospinal fluid): 1 ng/g; concentration at 0.25 h ([5]; mouse, plasma): 965 ng/mL; concentration at 2 h ([5]; mouse, plasma): 46 ng/mL; inhibitory effects on the hERG potassium ion channel (conclusion in words) ([1]; human): Conclusion: compounds 3, 4, 5, 9, 16, 17, 24, 30, 40, 41, 42, 43, 54 and others have weak inhibitory effects on the hERG potassium ion channel, having weaker inhibitory effect than the reference compound Ref-1.; AUC(0-t) ([2]; male, Balb/c, po): 2500 ng·h/mL; Cmax ([2]; male, Balb/c, po): 2700 ng/mL; half-life ([2]; male, Balb/c, po): 1.61 h; IC50 (NLRP3 inflammasome; THP-1 cells, PMA, LPS 1 µg/mL 3 h, drug 40 min, Nigericin 10 µM 40 min, IL-1β ELISA, read-out: IC50): 4.76 nM
5 | CCn1c(-c2ccc3sccc3c2O)nnc(N[C@@H]2C[C@@H](F)CN(C)C2)c1=O [Compound 43, 4-ethyl-6-(((3R,5R)-5-fluoro-1-methylpiperidin-3-yl)amino)-3-(4-hydroxybenzo[b]thiophen-5-yl)-1,2,4-triazin-5(4H)-ketone] |  |  |  |  |  |  |  |  |  |  |  | Conclusion: compounds 3, 4, 5, 9, 16, 17, 24, 30, 40, 41, 42, 43, 54 and others have weak inhibitory effects on the hERG potassium ion channel, having weaker inhibitory effect than the reference compound Ref-1. | 15700 ng·h/mL | 5070 ng/mL | 2.25 h | 14.23% | 5.66 nM | 151 ng/g | 6797 ng/mL | 40 ng/g | Plasma ([5]; 2h): 1911 ng/mL; distribution concentrations in cerebrospinal fluid / brain penetration potential (conclusion in words) ([5]; mouse, in vivo): Conclusion: some compounds of the present invention have good brain penetration potential, and particularly, compounds 40, 43 and others have high distribution concentrations in cerebrospinal fluid.
6 | CC(C)(O)c1coc(S(=O)(=O)NC(=O)Nc2c3c(cc4c2CCC4)CCC3)c1 [MCC950, reference compound] | 60% | 5 | 5 | 4 | 4 | 4 | 5 | 4 | 4 | 2 | 2 |  |  |  |  |  |  |  |  |  | IC50 [6]: 7.81 nM
